Measurements: patent US12410179B2, “Modulators of TNF alpha activity and uses thereof” (RayThera, Inc., priority 2023, dated 2025)

molecular target: TNFα (Homo sapiens, UniProt P01375); assay: HEK-Blue hTNFα reporter assay; assay type: cell-based; parameters: purchased R&D biosystem (R&D Systems) 210-TA-020/CF; conditions: HEK-Blue hTNFα reporter cells, SEAP readout; read-out: IC50 Range
How it was run: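 IC50 from 4-parameter regression of % inhibition, with OD620 of secreted SEAP (QUANTI-Blue, 1 h) referenced to cells with and without hTNFα. HEK-Blue TNFα reporter cells were exposed 24 h to compound premixed 1 h with hTNFα ([…]).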

Chain of TNFα (P01375 77-233 limits assumed): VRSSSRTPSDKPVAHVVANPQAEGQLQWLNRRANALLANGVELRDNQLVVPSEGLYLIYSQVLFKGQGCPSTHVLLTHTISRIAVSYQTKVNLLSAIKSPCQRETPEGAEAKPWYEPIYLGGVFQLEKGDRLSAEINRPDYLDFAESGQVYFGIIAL

IC50	Structure (SMILES)
< 25 nM	[2H]C([2H])([2H])N1C(=O)c2cccc(OC)c2[C@H]2C[C@@H]1c1nn3ccc(-c4cnc(C5(N)CCC5)nc4)cc3c12 [Example 251]
< 25 nM	[2H]C([2H])([2H])N1C(=O)c2cccc(OC(F)F)c2[C@H]2C[C@@H]1c1nn3ccc(-c4cnc(C5(O)COC5)nc4)cc3c12 [Example 153]
< 25 nM	[2H]C([2H])([2H])N1C(=O)c2cccc(OC(F)F)c2[C@H]2C[C@@H]1c1nn3ccc(-c4cnc([C@]5(N)C[C@@](C)(O)C5)nc4)nc3c12 [Example 218]
< 25 nM	C[C@@](O)(CC#N)c1ncc(-c2cc3c4c(nn3cc2F)[C@H]2C[C@@H]4c3c(OC(F)F)cccc3C(=O)N2)cn1 [Example 191]
< 25 nM	CN1C(=O)c2cccc(OC(F)F)c2[C@H]2C[C@@H]1c1nn3ccc(-c4cnc([C@@](O)(CC#N)C(F)F)nc4)cc3c12 [Example 79]
< 25 nM	[2H]C([2H])([2H])N1C(=O)c2cccc(OC(F)F)c2[C@H]2C[C@@H]1c1nn3cc(F)c(-c4cnc(C5(N)CC5)nc4)nc3c12 [Example 239]
< 25 nM	CN1C(=O)c2cccc(OC(F)F)c2[C@H]2C[C@@H]1c1nn3ccc(-c4cnc(N5CCN(CCO)CC5)nc4)cc3c12 [Example 145]
< 25 nM	[2H]C([2H])([2H])N1C(=O)c2cccc(OC(F)F)c2[C@H]2C[C@@H]1c1nn3ccc(-c4cnc([C@@](C)(O)CC#N)nc4)cc3c12 [Example 89]
25 to 100 nM	CN1C(=O)c2c(F)ccc(OC(F)F)c2[C@H]2C[C@@H]1c1nn3ccc(-c4cnc(C5(N)CCC5)nc4)cc3c12 [Example 322, (7R,14S)-12-(2-(1-aminocyclobutyl)pyrimidin-5-yl)-1-(difluoromethoxy)-4-fluoro-6-methyl-6,7-dihydro-7,14-methanobenzo[c]pyrido[1′,2′:1,5]pyrazolo[4,3-f]azocin-5 (14H)-one]
< 25 nM	[2H]C([2H])([2H])N1C(=O)c2cccc(OC(F)F)c2[C@H]2C[C@@H]1c1nn3ccc(-c4cnc(C5(N)CCC5)nc4C)nc3c12 [Example 242]
< 25 nM	[2H]C([2H])([2H])N1C(=O)c2cccc(OC(F)F)c2[C@H]2C[C@@H]1c1nn3cc(F)c(-c4cnc(C5(N)CCC5)cn4)cc3c12 [Example 199]
< 25 nM	CN1C(=O)c2cccc(OC(F)F)c2[C@H]2C[C@@H]1c1nn3ccc(-c4cnc(C(O)(CF)CF)nc4)cc3c12 [Example 95]
< 25 nM	CN1C(=O)c2cccc(OC(F)F)c2[C@H]2C[C@@H]1c1nn3ccc(-c4cnc([C@]5(N)C[C@@](C)(C(=O)O)C5)nc4)cc3c12 [Example 88]
< 25 nM	[2H]C([2H])([2H])N1C(=O)c2cccc(OC(F)F)c2[C@H]2C[C@@H]1c1nn3ccc(-c4cnc([C@]5(N)C[C@@H](C#N)C5)nc4)cc3c12 [Example 170]
< 25 nM	[2H]C([2H])([2H])N1C(=O)c2cccc(OC(F)F)c2[C@H]2C[C@@H]1c1nn3cc(F)c(-c4cnc([C@]5(N)C[C@@H](O)C5)c(F)c4)nc3c12 [Example 225]
< 25 nM	C[C@](O)(CC#N)c1ncc(-c2ccn3nc4c(c3c2)[C@@H]2C[C@H]4NC(=O)c3cccc(OC(F)F)c32)cn1 [Example 164]
< 25 nM	CN1C(=O)c2cccc(OC(F)F)c2[C@H]2C[C@@H]1c1nn3cc(F)c(-c4cnc([C@]5(N)C[C@@](C)(O)C5)nc4)cc3c12 [Example 36]
< 25 nM	CN1C(=O)c2cccc(OC(F)F)c2[C@H]2C[C@@H]1c1nn3cnc(-c4cnc([C@]5(N)C[C@@](C)(O)C5)nc4)cc3c12 [Example 46]
< 25 nM	[2H]C([2H])([2H])N1C(=O)c2cccc(OC(F)F)c2[C@H]2C[C@@H]1c1nn3cc(C)c(-c4cnc(C(C)(C)N)nc4)nc3c12 [Example 296]
< 25 nM	[2H]C([2H])([2H])N1C(=O)c2cccc(C#N)c2[C@H]2C[C@@H]1c1nn3ccc(-c4cnc([C@]5(N)C[C@@](C)(C#N)C5)nc4)cc3c12 [Example 308]
< 25 nM	[2H]C([2H])([2H])N1C(=O)c2cccc(OC(F)F)c2[C@H]2C[C@@H]1c1nn3cnc(-c4cnc(C5(N)CC5)nc4)cc3c12 [Example 245]
< 25 nM	[2H]C([2H])([2H])N1C(=O)c2cccc(OC(F)F)c2[C@H]2C[C@@H]1c1nn3ccc(-c4cnc([C@@](C)(N)CC#N)nc4)cc3c12 [Example 265]
< 25 nM	CN1CCN(c2ncc(-c3ccn4nc5c(c4c3)[C@@H]3C[C@H]5N(C)C(=O)c4cccc(OC(F)F)c43)cn2)CC1 [Example 155]
< 25 nM	CN1C(=O)c2cccc(OC(F)F)c2[C@H]2C[C@@H]1c1nn3ccc(-c4ccc(S(=N)(=O)C5CC5)nc4)cc3c12 (stereo partly shown) [Example 68]
< 25 nM	CN1C(=O)c2cccc(OC(F)F)c2[C@H]2C[C@@H]1c1nn3cc(F)c(-c4cnc([C@]5(O)C[C@@](C)(O)C5)nc4)nc3c12 [Example 26]

IC50	Structure (SMILES)
< 25 nM	C[C@@H](O)c1ncc(-c2ccn3nc4c(c3c2)[C@@H]2C[C@H]4N(C)C(=O)c3cccc(OC(F)F)c32)cn1 [Example 94]
< 25 nM	C[C@]1(O)C[C@](N)(c2ncc(-c3ccn4nc5c(c4c3)[C@@H]3C[C@H]5N(C4CC4)C(=O)c4cccc(OC(F)F)c43)cn2)C1 [Example 329]
< 25 nM	CN1C(=O)c2cccc(OC(F)F)c2[C@H]2C[C@@H]1c1nn3ccc(-c4cnc(C5(O)COC5)nc4)cc3c12 [Example 77]
< 25 nM	CN1C(=O)c2cccc(OC(F)F)c2[C@H]2C[C@@H]1c1nn3ccc(C4=CCC(C(C)(C)O)OC4)cc3c12 (stereo in doubt) [Example 318, (7R,14S)-1-(difluoromethoxy)-12-((R)-6-(2-hydroxypropan-2-yl)-5,6-dihydro-2H-pyran-3-yl)-6-methyl-6,7-dihydro-7,14-methanobenzo[c]pyrido[1′,2′:1,5]pyrazolo[4,3-f]azocin-5 (14H)-one]
< 25 nM	CN1C(=O)c2cccc(OC(F)F)c2[C@H]2C[C@@H]1c1nn3ccc(-c4cnc(C5(O)CC(C)(C#N)C5)nc4)nc3c12 (stereo partly drawn) [Example 4, (1R,3s)-3-(5-((7R,14S)-1-(difluoromethoxy)-6-methyl-5-oxo-5,6,7,14-tetrahydro-7,14-methanobenzo[c]pyrimido[1′,2′:1,5]pyrazolo[4,3-f]azocin-12-yl)pyrimidin-2-yl)-3-hydroxy-1-methylcyclobutane-1-carbonitrile]
25 to 100 nM	NC1(c2ncc(-c3ccn4nc5c(c4c3)[C@@H]3C[C@H]5NC(=O)c4cccc(OC5CC5)c43)cn2)CCC1 [Example 233]
< 25 nM	[2H]C([2H])([2H])N1C(=O)c2cccc(OC(F)F)c2[C@H]2C[C@@H]1c1nn3ccc(-c4cnc(C5(N)CCC5)c(F)c4)nc3c12 [Example 221]
< 25 nM	[2H]C([2H])([2H])N1C(=O)c2cccc(OC(F)F)c2[C@H]2C[C@@H]1c1nn3ccc(-c4cnc(C(C)(C)N)c(F)c4)cc3c12 [Example 325]
< 25 nM	CN1C(=O)c2cccc(OC(F)F)c2[C@H]2C[C@@H]1c1nn3ccc(-c4ncc(P(C)(C)=O)cn4)cc3c12 [Example 138]
< 25 nM	CN1C(=O)c2cccc(OC(F)F)c2C2CC1c1nn3ccc(-c4cnc(C5(N)CCC5)nc4)cc3c12 (stereo not shown) [Example 14, 12-(2-(1-aminocyclobutyl)pyrimidin-5-yl)-1-(difluoromethoxy)-6-methyl-6,7-dihydro-7,14-methanobenzo[c]pyrido[1′,2′:1,5]pyrazolo[4,3-f]azocin-5 (14H)-one]
< 25 nM	[2H]C([2H])([2H])N1C(=O)c2ccc(F)c(OC(F)F)c2[C@H]2C[C@@H]1c1nn3ccc(-c4cnc([C@]5(N)C[C@@](C)(O)C5)nc4)nc3c12 [Example 288]
< 25 nM	[2H]C([2H])([2H])N1C(=O)c2cccc(OC(F)F)c2[C@H]2C[C@@H]1c1nn3cnc(-c4cnc([C@]5(O)C[C@](C)(C#N)C5)nc4)cc3c12 [Example 273]
< 25 nM	[2H]C([2H])([2H])N1C(=O)c2cccc(OC(F)F)c2[C@H]2C[C@@H]1c1nn3cnc(-c4cnc([C@]5(N)C[C@@](C)(O)C5)nc4C)cc3c12 [Example 263]
< 25 nM	[2H]C([2H])([2H])N1C(=O)c2cccc(OC(F)F)c2[C@H]2C[C@@H]1c1nn3cc(F)c(-c4cnc([C@]5(N)C[C@H](C#N)C5)nc4)cc3c12 [Example 290]
< 25 nM	CN1C(=O)c2cccc(OC(F)F)c2[C@H]2C[C@@H]1c1nn3ccc(-c4cnc(C5(N)CC(F)(F)C5)nc4)cc3c12 [Example 99]
< 25 nM	CN1C(=O)c2cccc(OC(F)F)c2[C@H]2C[C@@H]1c1nn3cc(F)c(-c4ccc(P(C)(C)=O)nc4)nc3c12 [Example 25]
< 25 nM	[2H]C([2H])([2H])N1C(=O)c2cccc(OC(F)F)c2[C@H]2C[C@@H]1c1nn3ccc(-c4cnc(C(C)(C)N)c(F)c4)nc3c12 [Example 326]
< 25 nM	[2H]C([2H])([2H])N1C(=O)c2cccc(OC(F)F)c2[C@H]2C[C@@H]1c1nn3cc(C)c(-c4cnc([C@]5(N)C[C@@](C)(C#N)C5)nc4)nc3c12 [Example 237]
< 25 nM	CN1C(=O)c2cccc(OC(F)F)c2[C@H]2C[C@@H]1c1nn3cc(F)c(-c4ccc(P5(=O)CCOCC5)nc4)cc3c12 [Example 161]
< 25 nM	[2H]C([2H])([2H])N1C(=O)c2cccc(OC(F)F)c2[C@H]2C[C@@H]1c1nn3cc(F)c(-c4cnc(C5(N)COC5)nc4)nc3c12 [Example 178]
< 25 nM	[2H]C([2H])([2H])N1C(=O)c2cccc(OC(F)F)c2[C@H]2C[C@@H]1c1nn3ccc(-c4cnc([C@]5(O)C[C@@](C)(N)C5)cn4)cc3c12 [Example 253]
< 25 nM	[2H]C([2H])([2H])N1C(=O)c2cccc(OC(F)F)c2[C@H]2C[C@@H]1c1nn3ccc(-c4cnc([C@]5(N)C[C@@](C)(C#N)C5)nc4)cc3c12 [Example 55]
25 to 100 nM	NC1(c2ccc(-c3ccn4nc5c(c4n3)[C@@H]3C[C@H]5NC(=O)c4cccc(OC(F)F)c43)cn2)CCC1 [Example 186]
< 25 nM	CN1C(=O)c2cccc(OC(F)F)c2[C@H]2C[C@@H]1c1nn3ccc(-c4ncc([C@@H](O)[C@@H]5CCO5)cn4)cc3c12 [Example 129]
